Measured values published in ChEMBL document CHEMBL1137602, “Synthesis of aromatic compounds containing a 1,1-dialkyl-2-trifluoromethyl group, a bioisostere of the tert-alkyl moiety” (Bioorg Med Chem Lett, 2007).

Columns and labels:
[1] = target: Transient receptor potential cation channel subfamily V member 1 (Homo sapiens, UniProt Q8NER1); assay: Antagonist activity at human TRPV1 receptor; assay type: functional
[2] = Intrinsic clearance in human liver microsomes; assay type: ADME, Microsome
Liver microsomes = assay: Metabolic stability in human liver microsomes; assay type: ADME, Microsome

Sequence of Transient receptor potential cation channel subfamily V member 1 (Q8NER1 whole entry): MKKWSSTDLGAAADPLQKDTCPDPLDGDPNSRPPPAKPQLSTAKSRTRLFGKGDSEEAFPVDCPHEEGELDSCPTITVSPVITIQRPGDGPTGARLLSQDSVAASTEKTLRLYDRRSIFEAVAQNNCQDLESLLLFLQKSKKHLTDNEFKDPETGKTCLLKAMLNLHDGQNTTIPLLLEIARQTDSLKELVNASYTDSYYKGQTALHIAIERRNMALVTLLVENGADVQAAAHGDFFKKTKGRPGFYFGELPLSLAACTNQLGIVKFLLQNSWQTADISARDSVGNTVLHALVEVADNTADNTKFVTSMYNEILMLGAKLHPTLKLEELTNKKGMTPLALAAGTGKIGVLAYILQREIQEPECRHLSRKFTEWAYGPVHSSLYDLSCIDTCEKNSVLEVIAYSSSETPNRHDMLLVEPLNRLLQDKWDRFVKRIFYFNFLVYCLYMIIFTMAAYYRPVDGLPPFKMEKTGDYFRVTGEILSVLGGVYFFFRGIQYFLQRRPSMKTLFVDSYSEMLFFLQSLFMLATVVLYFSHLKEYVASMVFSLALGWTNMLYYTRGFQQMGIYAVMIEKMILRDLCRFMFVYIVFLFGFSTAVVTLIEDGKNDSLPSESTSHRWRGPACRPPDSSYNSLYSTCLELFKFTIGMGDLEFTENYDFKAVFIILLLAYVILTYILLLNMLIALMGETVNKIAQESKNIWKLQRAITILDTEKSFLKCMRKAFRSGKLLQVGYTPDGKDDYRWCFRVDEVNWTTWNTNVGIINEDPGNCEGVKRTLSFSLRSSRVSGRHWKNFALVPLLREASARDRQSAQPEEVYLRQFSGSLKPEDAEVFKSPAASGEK

Row | SMILES | IC50 [1] [nM] | CLint scaled [2] [mL/min/kg] | microsomal CLint [2] [µL/min/mg] | Activity (Liver microsomes)
1 | CC(C)(C)c1ccc(NC(=O)c2ccc(-c3ncccc3Cl)cc2)cc1 | 37 | 168 |  | 
2 | O=C(Nc1ccc(C(F)(F)F)cc1)c1ccc(-c2ncccc2Cl)cc1 | 200 | < 10.5 |  | 
3 | CC(C)(c1ccc(NC(=O)c2ccc(-c3ncccc3Cl)cc2)cc1)C(F)(F)F | 42 | 46 |  | Active

Other lines, results leading:

Row | IC50 [1] [nM] | CLint scaled [2] [mL/min/kg] | microsomal CLint [2] [µL/min/mg] | Activity (Liver microsomes) | SMILES
4 |  |  | 44.7 | Active | COc1ccc(C(C)(C)C(F)(F)F)cc1CN[C@H]1CCCN[C@H]1c1ccccc1
5 |  |  | 87.9 |  | COc1ccc(C(C)(C)C)cc1CN[C@H]1CCCN[C@H]1c1ccccc1
